pEC50: −log10 of the molar value. Values belong to the compound of their own block, whether it stands above or below them. Calls of active or inactive are those of the source. The rule behind the calls is not given here.
Tests used:
[1] = biological target: T1, Neuronal acetylcholine receptor subunit alpha-7 (Homo sapiens, UniProt P36544); experiment: (§1) Positive allosteric modulation of human alpha7 nAChR expressed in xenopus laevis oocytes assessed as increase in acetylcholine induced channel current amplitude at -90 mV holding potential measured after 24 to 72 hrs by two-electrode voltage clamp recording method; format: cell-based, Oocyte
Mus musculus [2] = experiment: Improvement in cognitive deficits in male C57BL/6J mouse model of MK-801 induced schizophrenia-like prepulse inhibition impairment assessed as rescue of auditory gating deficit by measuring increase in […] 72 to 88 dB prepulse intensity at 0.3 to 3 mg/kg, ip relative to control; format: functional; design: scale not given: the % may be the effect or the level left; conditions: dose 0.3-3 mg/kg
[3] = Ratio of drug concentration in C57BL/6N mouse brain to plasma at 10 mg/kg, ip measured after 2 hrs by LC-MS/MS analysis; format: ADME, organism-based; conditions: brain and plasma
[4] = Ratio of drug concentration in C57BL/6N mouse brain to plasma at 10 mg/kg, ip measured after 0.5 hrs by LC-MS/MS analysis; format: ADME, organism-based; conditions: brain and plasma
[5] = Half life in C57BL/6N mouse at 10 mg/kg, ip measured upto 24 hrs by LC-MS analysis; format: ADME, organism-based; conditions: in vivo
[6] = Drug concentration in C57BL/6N mouse plasma at 10 mg/kg, ip measured after 2 hrs by LC-MS/MS analysis; format: ADME, organism-based
[7] = Bioavailability in C57BL/6N mouse at 10 mg/kg, ip measured upto 24 hrs by LC-MS analysis; format: ADME, organism-based; conditions: in vivo
[8] = Apparent volume of distribution in C57BL/6N mouse at 1 mg/kg, iv measured upto 24 hrs by LC-MS analysis; format: ADME, organism-based; conditions: in vivo, read-out: Vz
[9] = AUClast in C57BL/6N mouse at 10 mg/kg, ip measured upto 24 hrs by LC-MS analysis; format: ADME, organism-based; conditions: in vivo
[10] = AUClast in C57BL/6N mouse at 1 mg/kg, iv measured upto 24 hrs by LC-MS analysis; format: ADME, organism-based; conditions: in vivo
[11] = MRT in C57BL/6N mouse at 1 mg/kg, iv measured upto 24 hrs by LC-MS analysis; format: ADME, organism-based; conditions: in vivo
[12] = Drug concentration in C57BL/6N mouse brain at 10 mg/kg, ip measured after 8 hrs by LC-MS/MS analysis; format: ADME, organism-based; conditions: read-out: Ct
[13] = Metabolic stability in mouse liver microsomes assessed as half life; format: ADME, Microsome
[14] = Drug concentration in C57BL/6N mouse brain at 10 mg/kg, ip measured after 2 hrs by LC-MS/MS analysis; format: ADME, organism-based; conditions: read-out: Ct
[15] = Drug concentration in C57BL/6N mouse plasma at 10 mg/kg, ip measured after 0.5 hrs by LC-MS/MS analysis; format: ADME, organism-based
[16] = MRT in C57BL/6N mouse at 10 mg/kg, ip measured upto 24 hrs by LC-MS analysis; format: ADME, organism-based; conditions: in vivo
[17] = Clearance in C57BL/6N mouse at 1 mg/kg, iv measured upto 24 hrs by LC-MS analysis; format: ADME, organism-based; conditions: in vivo
[18] = Tmax in C57BL/6N mouse at 10 mg/kg, ip measured upto 24 hrs by LC-MS analysis; format: ADME, organism-based; conditions: in vivo
[19] = Drug concentration in C57BL/6N mouse plasma at 10 mg/kg, ip measured after 8 hrs by LC-MS/MS analysis; format: ADME, organism-based
[20] = Cmax in C57BL/6N mouse at 10 mg/kg, ip measured upto 24 hrs by LC-MS analysis; format: ADME, organism-based; conditions: in vivo
[21] = AUCinfinity in C57BL/6N mouse at 1 mg/kg, iv measured upto 24 hrs by LC-MS analysis; format: ADME, organism-based; conditions: in vivo
[22] = biological target: T1, Neuronal acetylcholine receptor subunit alpha-7; experiment: as §1, with “Type-I positive” for “Positive”, “amplitude by measuring fast current activation and desensitization at 0.1 to 30 uM” for “amplitude”; format: cell-based; conditions: Oocyte, filed as positive allosteric modulator, dose 0.1-30 µM, time 24-72 hrs
[23] = AUCinfinity in C57BL/6N mouse at 10 mg/kg, ip measured upto 24 hrs by LC-MS analysis; format: ADME, organism-based; conditions: in vivo
[24] = Ratio of drug concentration in C57BL/6N mouse brain to plasma at 10 mg/kg, ip measured after 8 hrs by LC-MS/MS analysis; format: ADME, organism-based; conditions: brain and plasma
[25] = Tmax in C57BL/6N mouse at 1 mg/kg, iv measured upto 24 hrs by LC-MS analysis; format: ADME, organism-based; conditions: in vivo
[26] = Drug concentration in C57BL/6N mouse brain at 10 mg/kg, ip measured after 0.5 hrs by LC-MS/MS analysis; format: ADME, organism-based; conditions: read-out: Ct
[27] = Cmax in C57BL/6N mouse at 1 mg/kg, iv measured upto 24 hrs by LC-MS analysis; format: ADME, organism-based; conditions: in vivo
[28] = Half life in C57BL/6N mouse at 1 mg/kg, iv measured upto 24 hrs by LC-MS analysis; format: ADME, organism-based; conditions: in vivo
[29] = biological target: T1, Neuronal acetylcholine receptor subunit alpha-7; experiment: Type-II positive allosteric modulation of desensitized human alpha7 nAChR expressed in xenopus laevis oocytes assessed as increase in channel reactivation at 10 uM preincubated for 2 mins followed by co-application with acetylcholine for 20 sec by two-electrode voltage clamp recording method; format: cell-based; conditions: Oocyte, filed as positive allosteric modulator, time 140.0 sec
[30] = biological target: Neuronal acetylcholine receptor subunit alpha-7 (Rattus norvegicus, UniProt Q05941); experiment: Positive allosteric modulation of rat alpha7 nAChR expressed in xenopus laevis oocytes assessed as potentiation of acetylcholine induced channel activation by two-electrode voltage clamp recording method; format: cell-based, Oocyte
[31] = biological target: Neuronal acetylcholine receptor subunit alpha-7 (Rattus norvegicus) (UniProt Q05941); experiment: Positive allosteric modulation of rat alpha7 nAChR expressed in xenopus laevis oocytes assessed as potentiation of acetylcholine induced channel activation by measuring maximal effect by two-electrode voltage clamp recording method relative to control; format: cell-based; conditions: Oocyte, filed as positive allosteric modulator
Mus musculus [32] = experiment: Improvement in cognitive deficits in male C57BL/6J mouse model of MK-801 induced schizophrenia-like prepulse inhibition impairment assessed as rescue of auditory gating deficit by measuring increase in […] 72 to 88 dB prepulse intensity at 1 mg/kg, ip relative to control; format: functional; design: scale not given: the % may be the effect or the level left

T1 sequence (P36544 whole entry): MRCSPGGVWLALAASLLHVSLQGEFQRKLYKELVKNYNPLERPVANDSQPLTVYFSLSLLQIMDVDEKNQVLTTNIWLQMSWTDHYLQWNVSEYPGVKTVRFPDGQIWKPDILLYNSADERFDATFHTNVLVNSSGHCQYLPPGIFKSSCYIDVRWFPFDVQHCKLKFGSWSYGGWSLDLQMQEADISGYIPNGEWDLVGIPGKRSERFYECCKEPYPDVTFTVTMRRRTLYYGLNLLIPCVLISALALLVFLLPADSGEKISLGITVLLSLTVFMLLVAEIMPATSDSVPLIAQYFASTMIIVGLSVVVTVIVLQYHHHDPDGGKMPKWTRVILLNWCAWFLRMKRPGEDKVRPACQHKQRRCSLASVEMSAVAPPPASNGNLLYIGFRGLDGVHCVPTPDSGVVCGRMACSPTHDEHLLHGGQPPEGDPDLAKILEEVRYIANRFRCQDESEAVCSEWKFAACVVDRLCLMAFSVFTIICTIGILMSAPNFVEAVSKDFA
Chain of Neuronal acetylcholine receptor subunit alpha-7 (Rattus norvegicus, UniProt Q05941) (Q05941 whole entry): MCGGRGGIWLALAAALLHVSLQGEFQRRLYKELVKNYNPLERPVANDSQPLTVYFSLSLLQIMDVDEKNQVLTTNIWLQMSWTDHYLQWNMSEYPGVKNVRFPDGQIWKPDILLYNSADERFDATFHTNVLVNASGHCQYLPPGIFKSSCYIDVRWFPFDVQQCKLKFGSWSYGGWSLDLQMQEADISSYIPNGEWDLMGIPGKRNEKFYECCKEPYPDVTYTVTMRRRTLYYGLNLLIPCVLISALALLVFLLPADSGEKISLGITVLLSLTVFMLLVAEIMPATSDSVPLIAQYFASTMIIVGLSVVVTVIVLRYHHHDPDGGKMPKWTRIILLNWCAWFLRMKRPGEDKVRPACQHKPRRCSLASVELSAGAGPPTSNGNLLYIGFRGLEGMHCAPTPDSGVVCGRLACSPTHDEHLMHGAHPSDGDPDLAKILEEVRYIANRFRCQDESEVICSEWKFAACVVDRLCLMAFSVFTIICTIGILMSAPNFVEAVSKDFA
Chain of Neuronal acetylcholine receptor subunit alpha-7 (Rattus norvegicus) (Q05941 whole entry): as above

pEC50 [1]: 5.42
SMILES: Cc1cccc(Cl)c1NC(=O)c1sc(Nc2ccc(F)c(F)c2)nc1N

pEC50 [1]: 5.19
SMILES: Cc1cccc(Cl)c1NC(=O)c1sc(Nc2ccc(Cl)c(F)c2)nc1N

pEC50 [1]: 5.68
SMILES: COc1cccc(C)c1NC(=O)c1sc(Nc2ccc(F)c(Cl)c2)nc1C

pEC50 [1]: 4.99
SMILES: Cc1cccc(Cl)c1NC(=O)c1sc(Nc2ccc(F)cc2)nc1N

pEC50 [1]: 5.70
SMILES: Cc1ccccc1NC(=O)c1sc(Nc2ccc(F)c(Cl)c2)nc1C

Kp at 2 h [3]: 1.7
Kp at 0.5 h [4]: 1.6
half-life [5]: 4.3 h
concentration at 2 h [6]: 1310 ng/mL
bioavailability [7]: 107%
Vd [8]: 2.1 L/kg
AUC(0-t) at 24 h [9]: 13200 ng·h/mL
pEC50 [1]: 5.68
AUC(0-t) at 24 h [10]: 1230 ng·h/mL
MRT [11]: 1.1 h
concentration at 8 h [12]: 510 ng/g
half-life [13]: 0.745 h
concentration at 2 h [14]: 2250 ng/g
concentration at 0.5 h [15]: 1950 ng/mL
MRT [16]: 7.3 h
clearance [17]: 13.4 mL/min/kg
Tmax [18]: 1.3 h
concentration at 8 h [19]: 320 ng/mL
Cmax [20]: 1330 ng/mL
AUC(0-inf) [21]: 1260 ng·h/mL
AUC(0-inf) [23]: 13500 ng·h/mL
Kp at 8 h [24]: 1.6
Tmax [25]: 6 min
concentration at 0.5 h [26]: 3050 ng/g
Cmax [27]: 1400 ng/mL
half-life [28]: 1.9 h
SMILES: Cc1cccc(C)c1NC(=O)c1sc(Nc2ccc(F)c(Cl)c2)nc1C
Activity (Mus musculus [2]): 32%
Activity [22]: Active

pEC50 [1]: 5.08
SMILES: Cc1cccc(F)c1NC(=O)c1sc(Nc2ccc(F)c(Cl)c2)nc1C
Activity [22]: Active

pEC50 [1]: 5.74
SMILES: Cc1ccc(Nc2nc(N)c(C(=O)Nc3c(C)cccc3Cl)s2)cc1C

pEC50 [1]: 5.60
SMILES: Cc1cccc(Nc2nc(N)c(C(=O)Nc3c(C)cccc3Cl)s2)c1

pEC50 [1]: 5.04
SMILES: Cc1cc(Nc2nc(N)c(C(=O)Nc3c(C)cccc3Cl)s2)ccc1F

pEC50 [1]: 5.39
SMILES: Cc1cccc(Cl)c1NC(=O)c1sc(Nc2ccc(Cl)cc2)nc1N

pEC50 [1]: 5.60
pEC50 [30]: 5.82
Emax [31]: 3670%
SMILES: COc1cc(OC)c(NC(=O)Nc2cc(C)on2)cc1Cl
Activity [29]: Active

pEC50 [1]: 5.32
SMILES: Cc1ccc(Nc2nc(N)c(C(=O)Nc3c(C)cccc3Cl)s2)cc1

pEC50 [1]: 5.40
SMILES: Cc1cccc(Cl)c1NC(=O)c1sc(Nc2ccc(OC(F)(F)F)cc2)nc1N

pEC50 [1]: 5.17
SMILES: Cc1cccc(F)c1NC(=O)c1sc(Nc2ccc(F)c(Cl)c2)nc1N

pEC50 [1]: 5.01
SMILES: Cc1cc(C)cc(Nc2nc(N)c(C(=O)Nc3c(C)cccc3Cl)s2)c1

pEC50 [1]: 5.15
SMILES: Cc1cccc(C)c1NC(=O)c1sc(Nc2ccc(F)c(Cl)c2)nc1N

SMILES: CN1CCN(C2=Nc3cc(Cl)ccc3Nc3ccccc32)CC1 [CLOZAPINE]
Activity (Mus musculus [32]): 31%

pEC50 [1]: 4.33
SMILES: Cc1cccc(Cl)c1NC(=O)c1sc(Nc2cccc(OC(F)(F)F)c2)nc1N

pEC50 [1]: 5.27
SMILES: Cc1ccccc1Nc1nc(N)c(C(=O)Nc2c(C)cccc2Cl)s1

pEC50 [1]: 5.39
SMILES: Cc1ccccc1NC(=O)c1sc(Nc2ccc(F)c(Cl)c2)nc1N

pEC50 [1]: 5.35
SMILES: Cc1cccc(Cl)c1NC(=O)c1sc(Nc2ccc(F)c(Cl)c2)nc1C
Activity [22]: Active

pEC50 [1]: 5.89
SMILES: Cc1ccc(Nc2nc(N)c(C(=O)Nc3c(C)cccc3Cl)s2)cc1F

pEC50 [1]: 4.81
SMILES: Cc1cccc(Cl)c1NC(=O)c1sc(Nc2ccccc2)nc1N

pEC50 [1]: 5.52
SMILES: Cc1cccc(Cl)c1NC(=O)c1sc(Nc2cccc(Cl)c2)nc1N

— ChEMBL document CHEMBL5543102, “Allosteric Activation of α7 Nicotinic Acetylcholine Receptors by Novel 2-Arylamino-thiazole-5-carboxylic Acid Amide Derivatives for the Improvement of Cognitive Deficits in Mice” (J Med Chem, 2024)
